Assay results published in ChEMBL document CHEMBL5104090, “Recent advances in the medicinal chemistry of carbonic anhydrase inhibitors” (Eur J Med Chem, 2021).
One block for each compound: values may come before it.

What was measured:
[1] = biological target: T1, Carbonic anhydrase 1 (Homo sapiens, UniProt P00915)
[2] = biological target: T2, Carbonic anhydrase 2 (Homo sapiens, UniProt P00918)
[3] = biological target: T3, Carbonic anhydrase 9 (Homo sapiens, UniProt Q16790)
[4] = biological target: T4, Carbonic anhydrase 12 (Homo sapiens, UniProt O43570)
T4 sequence (O43570 whole entry): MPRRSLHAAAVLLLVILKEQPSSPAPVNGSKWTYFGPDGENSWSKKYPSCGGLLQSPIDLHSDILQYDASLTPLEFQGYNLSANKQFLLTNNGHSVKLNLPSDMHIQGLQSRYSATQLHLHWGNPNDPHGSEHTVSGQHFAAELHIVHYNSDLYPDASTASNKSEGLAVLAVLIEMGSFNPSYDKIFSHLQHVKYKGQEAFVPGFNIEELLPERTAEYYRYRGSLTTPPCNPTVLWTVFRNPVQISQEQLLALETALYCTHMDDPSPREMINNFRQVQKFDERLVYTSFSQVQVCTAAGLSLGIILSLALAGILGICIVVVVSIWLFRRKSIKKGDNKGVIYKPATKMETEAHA

[5] = biological target: T5, Carbonic anhydrase 4 (Homo sapiens, UniProt P22748)
T5 sequence (P22748 whole entry): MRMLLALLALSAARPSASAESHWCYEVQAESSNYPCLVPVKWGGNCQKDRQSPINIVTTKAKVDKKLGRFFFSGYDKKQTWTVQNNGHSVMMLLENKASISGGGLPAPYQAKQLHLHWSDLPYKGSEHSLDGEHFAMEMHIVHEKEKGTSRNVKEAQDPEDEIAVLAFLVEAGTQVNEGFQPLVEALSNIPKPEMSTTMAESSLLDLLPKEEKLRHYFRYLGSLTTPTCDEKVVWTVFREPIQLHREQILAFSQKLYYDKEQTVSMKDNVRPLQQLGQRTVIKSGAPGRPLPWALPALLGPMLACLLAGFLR

[6] = biological target: T3, Carbonic anhydrase 9; remark: listed apart in the source
[7] = biological target: T4, Carbonic anhydrase 12; remark: listed apart in the source
[8] = biological target: T1, Carbonic anhydrase 1; remark: listed apart in the source
[9] = biological target: T2, Carbonic anhydrase 2; remark: listed apart in the source
[10] = biological target: T1, Carbonic anhydrase 1; remark: listed apart in the source
[11] = biological target: T2, Carbonic anhydrase 2; remark: listed apart in the source
[12] = biological target: T5, Carbonic anhydrase 4; remark: listed apart in the source
[13] = biological target: T3, Carbonic anhydrase 9; remark: listed apart in the source

T1 sequence (P00915 whole entry): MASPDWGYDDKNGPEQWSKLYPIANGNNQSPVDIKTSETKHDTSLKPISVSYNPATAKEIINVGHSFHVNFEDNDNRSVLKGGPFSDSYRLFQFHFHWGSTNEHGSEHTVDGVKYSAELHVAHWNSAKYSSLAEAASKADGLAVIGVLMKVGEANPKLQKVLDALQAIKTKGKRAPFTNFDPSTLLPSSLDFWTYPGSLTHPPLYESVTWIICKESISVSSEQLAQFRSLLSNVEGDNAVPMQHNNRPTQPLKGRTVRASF

IC50 [1]: > 360 nM
IC50 [2]: > 360 nM
IC50 [3]: > 360 nM
IC50 [4]: > 360 nM
SMILES: Cn1c(-c2ccc(Cl)cc2)nc2cc(C(=O)NO)ccc21

Ki [5]: 6.5 nM
SMILES: NS(=O)(=O)c1cccc(N/C=C/C(=O)c2ccccc2)c1

Ki [6]: 19.3 nM
Ki [7]: 17.2 nM
SMILES: N#Cc1ccc(CSc2nc3ccccc3c(=O)n2CCc2ccc(S(N)(=O)=O)cc2)cc1

Ki [6]: 57.8 nM
Ki [7]: 57.8 nM
SMILES: CCSc1nc2ccccc2c(=O)n1CCc1ccc(S(N)(=O)=O)cc1

IC50 [1]: > 360 nM
IC50 [2]: > 360 nM
IC50 [3]: > 360 nM
IC50 [4]: > 360 nM
SMILES: Cn1c(-c2ccccc2)nc2cc(C(N)=O)ccc21

IC50 [1]: > 360 nM
IC50 [2]: > 360 nM
IC50 [3]: > 360 nM
IC50 [4]: > 360 nM
SMILES: Cn1c(-c2ccccc2)nc2cc(C(=O)O)ccc21

IC50 [1]: > 360 nM
IC50 [2]: > 360 nM
IC50 [3]: > 360 nM
IC50 [4]: > 360 nM
SMILES: Cn1c(-c2ccc(Cl)cc2)nc2cc(C(N)=O)ccc21

IC50 [1]: > 360 nM
IC50 [2]: > 360 nM
IC50 [3]: > 360 nM
IC50 [4]: > 360 nM
SMILES: Cn1c(-c2ccccc2)nc2cc(C(=O)NO)ccc21

Ki [8]: > 100000 nM
Ki [9]: > 100000 nM
SMILES: CCOC(=O)c1ccc(-c2ccc3c(c2)OS(=O)(=O)CC=C3)cc1

Ki [8]: > 100000 nM
Ki [9]: > 100000 nM
SMILES: O=S1(=O)CC=Cc2cc(I)ccc2O1

Ki [6]: 0.21 nM
Ki [5]: 6.5 nM
SMILES: NS(=O)(=O)c1ccc(N/C=C/C(=O)c2ccc(Cl)cc2)cc1

Ki [8]: > 100000 nM
Ki [9]: > 100000 nM
SMILES: CCOC(=O)c1ccc(-c2cccc3c2OS(=O)(=O)CC=C3)cc1

Ki [6]: 0.21 nM
Ki [5]: 6.5 nM
SMILES: NS(=O)(=O)c1ccc(N/C=C/C(=O)c2ccco2)cc1

Ki [6]: 0.21 nM
Ki [5]: 6.5 nM
SMILES: NS(=O)(=O)c1ccc(N/C=C/C(=O)c2cccs2)cc1

Ki [10]: > 10000 nM
Ki [11]: > 10000 nM
Ki [12]: > 10000 nM
Ki [13]: > 10000 nM
SMILES: COC(=O)c1ccc2c(c1)C(=O)N(c1ccccc1)C2=O

Ki [8]: > 100000 nM
Ki [9]: > 100000 nM
SMILES: O=S1(=O)CC=Cc2cc(-c3ccccc3)ccc2O1

Ki [10]: > 10000 nM
Ki [11]: > 10000 nM
Ki [12]: > 10000 nM
Ki [13]: > 10000 nM
SMILES: COC(=O)c1ccc2c(c1)C(=O)N(Cc1ccccc1)C2=O

Ki [10]: > 10000 nM
Ki [11]: > 10000 nM
Ki [12]: > 10000 nM
Ki [13]: > 10000 nM
SMILES: CCOC(=O)c1ccc(N2C(=O)c3ccc(C(=O)O)cc3C2=O)cc1

Ki [10]: 54.1 nM
Ki [11]: 25.9 nM
Ki [12]: 317 nM
Ki [13]: 54.1 nM
SMILES: NS(=O)(=O)c1ccc(CN2C(=O)c3ccc(C(=O)O)cc3C2=O)cc1

Ki [8]: > 100000 nM
Ki [9]: > 100000 nM
SMILES: O=S1(=O)CC=Cc2cc(-c3ccc(F)cc3)ccc2O1

Ki [6]: 8.5 nM
Ki [7]: 8.6 nM
SMILES: NS(=O)(=O)c1ccc(C(=O)N/N=C/c2ccc(O)cc2)cc1

Ki [5]: 8.7 nM
SMILES: NS(=O)(=O)c1cccc(N/C=C/C(=O)c2cccs2)c1

Ki [8]: > 100000 nM
Ki [9]: > 100000 nM
SMILES: COc1ccc(-c2ccc3c(c2)OS(=O)(=O)CC=C3)cc1

Ki [10]: 54.1 nM
Ki [11]: 25.9 nM
Ki [12]: 317 nM
Ki [13]: 54.1 nM
SMILES: COC(=O)c1ccc2c(c1)C(=O)N(Cc1ccc(S(N)(=O)=O)cc1)C2=O

IC50 [1]: > 360 nM
IC50 [2]: > 360 nM
IC50 [3]: > 360 nM
IC50 [4]: > 360 nM
SMILES: Cn1c(-c2ccccc2)nc2cc(S(N)(=O)=O)ccc21

Ki [5]: 6.5 nM
SMILES: NS(=O)(=O)c1cccc(N/C=C/C(=O)c2ccc(Br)cc2)c1

Ki [5]: 64.5 nM
SMILES: NS(=O)(=O)c1cccc(N/C=C/C(=O)c2ccco2)c1

IC50 [1]: > 360 nM
IC50 [2]: > 360 nM
IC50 [3]: > 360 nM
IC50 [4]: > 360 nM
SMILES: Cn1c(-c2ccc(Cl)cc2)nc2cc(C(=O)O)ccc21

IC50 [1]: > 360 nM
IC50 [2]: > 360 nM
IC50 [3]: > 360 nM
IC50 [4]: > 360 nM
SMILES: Cn1c(-c2ccc(B(O)O)cc2)nc2ccccc21

Ki [8]: > 100000 nM
Ki [9]: > 100000 nM
SMILES: O=S1(=O)CC=Cc2ccc(-c3ccccc3)cc2O1

Ki [10]: > 10000 nM
Ki [11]: > 10000 nM
Ki [12]: > 10000 nM
Ki [13]: > 10000 nM
SMILES: O=C(O)c1ccc2c(c1)C(=O)N(c1ccccc1)C2=O

Ki [8]: > 100000 nM
Ki [9]: > 100000 nM
SMILES: O=S1(=O)CC=Cc2cccc(-c3ccc(C(F)(F)F)cc3)c2O1

Ki [10]: > 10000 nM
Ki [11]: > 10000 nM
Ki [12]: > 10000 nM
Ki [13]: > 10000 nM
SMILES: O=C(O)c1ccc2c(c1)C(=O)N(Cc1ccccc1)C2=O

Ki [6]: 8.5 nM
Ki [7]: 9.7 nM
SMILES: COc1cc(/C=N/NC(=O)c2ccc(S(N)(=O)=O)cc2)ccc1O

IC50 [1]: > 360 nM
IC50 [2]: > 360 nM
IC50 [3]: > 360 nM
IC50 [4]: > 360 nM
SMILES: NS(=O)(=O)c1ccc2[nH]c(-c3ccccn3)nc2c1

Ki [6]: 19.3 nM
Ki [7]: 17.2 nM
SMILES: Cc1ccc(CSc2nc3ccccc3c(=O)n2CCc2ccc(S(N)(=O)=O)cc2)cc1
